Columns and labels:
whole blood cells [1] = test: Blind clinical trial and individual patient diagnosis: fluorescence intensity ratio of whole blood cells; type: cell-based, human; details: 30 μM ethacrynate
Method: A clinical trial was conducted using blood samples from the following four groups: schizophrenic, bipolar, and unipolar patients, as well as controls. The medical histories of these patients were unknown to the investigator measuring the membrane potentials; therefore, the trials described in this example were blind trials. The sample size was determined to be 5 with a power of 0.9, an alpha of 0.05, a difference in mean of 0.08, and a standard deviation of 0.03. However, more than 10 samples for each category were tested for a total sample size of 59. If a patient matched a diagnosis, structured clinical interviews according to DSM-IV guidelines were performed.
Whole blood samples drawn from patients and controls were suspended both in K^+-containing buffer and in K^+-free buffer with 30 μM ethacrynate or with 100 μM sorbitol. The fluorescent dye DiOC6(3) was added to both suspensions and incubated for 30 minutes. The cell suspensions loaded with the dye were centrifuged, drained and resuspended in the respective buffers. The fluorescence intensity was measured for 10 seconds and the ratio of the intensity in K^+-free buffer to the intensity in K^+-containing buffer was calculated.
An individual patient's cell sample was tested as described herein and six to twelve ratios were calculated. These values were treated as a group and compared with a normal control group (negative control) and a bipolar group (positive control).

whole blood cells [2] = test: Open clinical trial: fluorescence intensity ratio of whole blood cells; type: cell-based, human
Method: A pilot clinical trial was conducted using blood samples from 12 clinically affected bipolar patients and 11 unaffected controls. The medical histories of the patients were known to the investigator measuring the membrane potentials; therefore, the trials described in this example were open trials. The patients ranged from 19 years to 77 years in age, and included males and females from different ethnic groups. Similarly, the controls ranged from 25 to 67 including males and females from different ethnic groups. The patients were all hospitalized following a confirmed manic episode. During the drawing of samples, all patients were on mood stabilizers, either lithium or valproate.
Because the volume of blood required to collect enough lymphocytes was beyond that permitted by the current protocol, the membrane potential of whole blood cells was determined. The volume of whole blood required was approximately 1 ml. The blood samples were kept on ice until they were stored at 4° C. All of the samples were tested within 48 hours.
Whole blood samples drawn from patients and controls were suspended in K^+-containing buffer without ethacrynate and in K^+-free buffer with 30 μM ethacrynate or with 100 mM sorbitol. The fluorescent dye DiOC6(3) was added to both suspensions and incubated for 30 minutes. The cell suspensions loaded with the dye were centrifuged, drained and resuspended in the respective buffers. The fluorescence intensity was measured for 10 seconds and the ratio of the intensity in K^+-free buffer to the intensity in K^+-containing buffer was calculated.

lymphoblasts [3] = test: Rate of drop in membrane potential (repolarization rate) in lymphoblasts; type: cell-based, human
Method: As the Na^+K^+ ATPase density on the cell surface increases, the intracellular sodium concentration decreases and the membrane potential begins to drop as a result of repolarization of the cell membrane. The rate of drop in membrane potential (repolarization rate) in affected cells incubated for 30 minutes in both K^+-free buffer and in K^+-containing (regular) buffer in the presence or absence of 30 μM ethacrynate was compared to that of unaffected cells incubated for 30 minutes in both K^+-free buffer and in K^+-containing buffer in the presence or absence of 30 μM ethacrynate. The difference in the median values between the two groups was greater than would be expected by chance.
The rate of drop in membrane potential after incubation with the protein kinase C (PKC) activator, phorbol 12-myristate 13-acetate (PMA), was compared in affected cells to that of unaffected cells. The membrane potential of these cells was determined by measuring the fluorescence intensity as described above. The rate of drop in membrane potential (repolarization rate) in affected cells was compared to that in unaffected cells in K^+-free buffer in the presence or absence of 2 μM PMA. The difference in the median values between the two groups was greater than would be expected by chance.
The rate of drop in membrane potential (repolarization rate) in affected cells incubated for 30 minutes in both K^+-free buffer and in K^+-containing (regular) buffer in the presence or absence of 2 μM PMA was compared to that of unaffected cells incubated for 30 minutes in both K^+-free buffer and in K^+-containing buffer in the presence or absence of 2 μM PMA. The difference in the median values between the two groups was greater than would be expected by chance.

lymphoblasts [4] = test: Membrane potential of lymphoblasts by DiOC6(3) fluorescence intensity ratio; type: cell-based, human
Method: Three groups of immortalized lymphoblast samples were obtained from the Human Genetic Mutant Cell Repository (Coriell Institute for Medical Research, Camden N.J.). The samples are shown in Table 4 below and included six from affected (bipolar I disorder) patients (A1 through A6), six from their siblings (S1 through S6), and six from unrelated normal control subjects matched by age and sex (N1 through N6).
The cells were grown at 37° C. in RPMI 1640 culture medium (GIBCO, Life Technologies, Gaithersburg, Md., USA) with 15% fetal bovine serum and 1% penicillin.
The membrane potentials of the bipolar I cells shown in Table 4 above (as well as in all other experiments, except where indicated) were measured using the following protocol. The cells cultured in the media described above were centrifuged at 210 g for 5 minutes at room temperature, then suspended in 3 ml of K^+-containing stock buffer (5 mM KCl, 4 mM NaHCO3, 5 mM HEPES, 134 mM NaCl, 2.3 mM CaCl2, and 5 mM glucose). The cells were counted and the desired number of cells were again suspended in the K^+-containing buffer. The membrane potentials were measured using 3,3′-dihexyloxacarbocyanine iodide DiOC6(3), a cell-permeant, voltage sensitive, green-fluorescent dye (Molecular Probes Inc. Eugene, Oreg. USA). The cells were preincubated for 30 minutes before measurements. The preincubated cell suspension was centrifuged at 210 g for 5 minutes and the cells were resuspended in the K^+-containing buffer without the dye in the buffer.
A fluorescence spectrometer (F2500 Hitachi, Japan) was used for the measurement of the membrane potential by measuring the fluorescence intensity of DiOC6(3), which is directly proportional to the membrane potential. The intensity of fluorescence was measured at an excitation wavelength of 488 nm and an output wavelength of 540 nm. The time of recordings varied from 10 seconds to 1500 seconds depending upon the experiment.
Membrane potential was expressed according to fluorescence intensity using the following equation: I=CV, wherein I is the fluorescence intensity of a lipophilic fluorescent dye DiOC6(3) being only one example of such a dye); V is the voltage or membrane potential; and C is a constant that can vary depending on a number of factors such as, but not limited to, temperature, lamp intensity, number of cells, concentration of the fluorescent dye, incubation time, and lipid composition of cells used. By using the ratio of the fluorescence intensity (I1) of one sample of cells to the fluorescence intensity (I2) of another sample of cells, the constant (C) could be canceled out
Membrane potentials were also measured in K^+-free buffer to enable comparison with membrane potentials in K^+-containing buffer. As used herein, K^+-free buffer contains all of the components of the K^+-containing buffer, except potassium (4 mM NaHCO3, 5 mM HEPES, 134 mM NaCl, 2.3 mM CaCl2, and 5 mM glucose). Constant volumes of samples of each cell line were added to an equal volume of buffer containing an equal volume of dye. […] Each variable was constant for each cell line in both buffers, so that the ratio of intensities was a true ratio-metric measurement.
The relative fluorescence intensity ratio of cells in K^+-free buffer was compared to that of cells in K^+-containing buffer with or without 30 μM ethacrynate. […] The membrane potential of these cells was determined by measuring the fluorescence intensity as described above. […]

[5] = antibiotic ionophore; cited from earlier work
[6] = blind trial, Bipolars, whole blood
[7] = blind trial, Controls, whole blood
[8] = blind trial, Schizophr., whole blood
[9] = blind trial, Unipolars, whole blood
[10] = Bipolars, 30 μM ethacrynate, whole blood
[11] = Controls, 30 μM ethacrynate, whole blood

Question: Which “ratio of fluorescence intensity in K+-free buffer with ethacrynate to K+-containing buffer without ethacrynate, Mean” value (whole blood cells [1]; Patient A) does the source give for C=C(CC)C(=O)c1ccc(OCC(=O)O)c(Cl)c1Cl [ethacrynate] here?
Answer: Its value is 0.766.

Question: What about the “ratio of fluorescence intensity in K+-free buffer with ethacrynate to K+-containing buffer without ethacrynate, Median” value (whole blood cells [1]; Patient A) of the same compound?
Answer: Its value is 0.763.

Question: And the “fluorescence intensity ratio of bipolar samples compared to the other three groups” value (whole blood cells [1]; blind trial, ANOVA)?
Answer: Its value is “significantly lower”.

Question: What about the “fluorescence intensity ratio of unipolar samples compared to the other three groups” value (whole blood cells [1]; blind trial, ANOVA) of the same compound?
Answer: Its value is “significantly higher”.

Question: And the “ratio of fluorescence intensity in K+-free buffer with ethacrynate to K+-containing buffer without ethacrynate, Mean” value (whole blood cells [1]; [6])?
Answer: Its value is 0.768.

Question: What about the “ratio of fluorescence intensity in K+-free buffer with ethacrynate to K+-containing buffer without ethacrynate, Median” value (whole blood cells [1]; [6]) of the same compound?
Answer: Its value is 0.773.

Question: What about the “ratio of fluorescence intensity in K+-free buffer with ethacrynate to K+-containing buffer without ethacrynate, Mean” value (whole blood cells [1]; [7]) of the same compound?
Answer: The value was 0.850.

Question: And the “ratio of fluorescence intensity in K+-free buffer with ethacrynate to K+-containing buffer without ethacrynate, Median” value (whole blood cells [1]; [7])?
Answer: Its value is 0.850.

Question: What about the “ratio of fluorescence intensity in K+-free buffer with ethacrynate to K+-containing buffer without ethacrynate, Mean” value (whole blood cells [1]; [8]) of the same compound?
Answer: The value was 0.870.

Question: And the “ratio of fluorescence intensity in K+-free buffer with ethacrynate to K+-containing buffer without ethacrynate, Median” value (whole blood cells [1]; [8])?
Answer: The value was 0.863.

Question: What about the “ratio of fluorescence intensity in K+-free buffer with ethacrynate to K+-containing buffer without ethacrynate, Mean” value (whole blood cells [1]; [9]) of the same compound?
Answer: The value was 0.898.

Question: And the “ratio of fluorescence intensity in K+-free buffer with ethacrynate to K+-containing buffer without ethacrynate, Median” value (whole blood cells [1]; [9])?
Answer: Its value is 0.901.

Question: And the “mean fluorescence intensity ratio of bipolar samples compared to control samples” value (whole blood cells [2]; 30 μM ethacrynate, t-test)?
Answer: The value was “significantly lower”.

Question: And the “ratio of fluorescence intensity in K+-free buffer with ethacrynate to K+-containing buffer without ethacrynate, Mean” value (whole blood cells [2]; [10])?
Answer: The value was 0.780.

Question: And the “ratio of fluorescence intensity in K+-free buffer with ethacrynate to K+-containing buffer without ethacrynate, Median” value (whole blood cells [2]; [10])?
Answer: Its value is 0.778.

Question: And the “ratio of fluorescence intensity in K+-free buffer with ethacrynate to K+-containing buffer without ethacrynate, Mean” value (whole blood cells [2]; [11])?
Answer: Its value is 0.893.

Question: And the “ratio of fluorescence intensity in K+-free buffer with ethacrynate to K+-containing buffer without ethacrynate, Median” value (whole blood cells [2]; [11])?
Answer: Its value is 0.893.

Question: And the “relative rate of repolarization in affected cells compared to unaffected cells” value (lymphoblasts [3]; 30 μM ethacrynate, 30 min, K+-free and K+-containing buffer, P=0.041)?
Answer: Its value is “significantly higher”.

Question: And the “relative intensity ratio of affected cells compared to unaffected cells” value (lymphoblasts [4]; 30 μM ethacrynate, 30 min, K+-free vs K+-containing buffer, t-test P=0.009)?
Answer: The value was “significantly higher”.

Question: And the “intensity ratio (membrane potential with ethacrynate/without ethacrynate) of affected cells compared to unaffected cells” value (lymphoblasts [4]; K+-free buffer, 30 μM ethacrynate, t-test P=0.032)?
Answer: Its value is “significantly higher”.

Question: And the “relative intensity ratio, mean (intensity ratio with/without ethacrynate in K+-free buffer divided by that in K+-containing buffer)” value (lymphoblasts [4]; affected (bipolar I) cells, 30 μM ethacrynate, 30 min)?
Answer: Its value is “approximately 1.04”.

Question: What about the “relative intensity ratio, mean (intensity ratio with/without ethacrynate in K+-free buffer divided by that in K+-containing buffer)” value (lymphoblasts [4]; unaffected (sibling and normal) cells, 30 μM ethacrynate, 30 min) of the same compound?
Answer: The value was “approximately 0.79”.

Question: Which “fluorescence intensity ratios of bipolar cells with sorbitol compared to ethacrynate” value (whole blood cells [2]; bipolar patients, 100 mM sorbitol in K+-free buffer, whole blood) does the source give for OC[C@@H](O)[C@@H](O)[C@H](O)[C@@H](O)CO [sorbitol] here?
Answer: The value was “comparable”.

Question: With CC[C@@]1([C@@H]2O[C@@H]([C@H]3O[C@@](O)(CO)[C@H](C)C[C@@H]3C)C[C@@H]2C)CC[C@H]([C@]2(C)CC[C@]3(C[C@H](O)[C@@H](C)[C@@H]([C@@H](C)[C@@H](OC)[C@H](C)C(=O)O)O3)O2)O1 [monensin] as the compound, how does the “preference for Na+ over K+” value [5] read?
Answer: Its value is 10 fold.

Question: What about the “intensity ratio (membrane potential with monensin/without monensin) of affected cells compared to unaffected cells” value (lymphoblasts [4]; K+-free buffer, 10 μM monensin, 30 min, t-test P=0.009) of the same compound?
Answer: Its value is “significantly lower”.

Question: Which “relative ratio of repolarization rates in affected cells compared to unaffected cells” value (lymphoblasts [3]; 2 μM PMA, 30 min, K+-free and K+-containing buffer, P=0.046) does the source give for CCCCCCCCCCCCCC(=O)O[C@@H]1[C@@H](C)[C@@]2(O)[C@@H](C=C(CO)C[C@]3(O)C(=O)C(C)=C[C@@H]23)[C@@H]2C(C)(C)[C@]12OC(C)=O [PMA, phorbol 12-myristate 13-acetate] here?
Answer: Its value is “significantly lower”.

Question: And the “repolarization rate (with PMA/without PMA) in affected cells compared to unaffected cells” value (lymphoblasts [3]; K+-free buffer, 2 μM PMA, t-test P=0.029)?
Answer: Its value is “significantly different”.

Source: patent publication US7425410B2, “Methods for diagnosing a bipolar disorder and unipolar disorder” (Free State Diagnostics, LLC, priority 2003, dated 2008)
